Experimental data published in patent US8877707B2, “Inhibitors of HCV NS5A” (Presidio Pharmaceuticals, Inc., priority 2010, dated 2014).
Like-named read-outs stand apart in the source and are kept apart here.

System: HCV genotype 1b replicon in Huh 7 cells
Assay: HCV replicon assay (1b_Huh-Luc/Neo-ET cell line, luciferase readout)
Type: cell-based
Conditions: Hepatitis C virus, read-out: Inhibition of HCV genotype 1b
Procedure: Biological activity of the compounds of the invention was determined using an HCV replicon assay. The 1b_Huh-Luc/Neo-ET cell line persistently expressing a bicistronic genotype 1b replicon in Huh 7 cells was obtained from ReBLikon GMBH. This cell line was used to test compound inhibition using luciferase enzyme activity readout as a measurement of compound inhibition of replicon levels.
On Day 1 (the day after plating), each compound is added in triplicate to the cells. Plates incubated for 72 h prior to running the luciferase assay. Enzyme activity was measured using a Bright-Glo Kit (cat. number E2620) manufactured by Promega Corporation. The following equation was used to generate a percent control value for each compound. % Control=(Average Compound Value/Average Control)*100
The EC50 value was determined using GraphPad Prism and the following equation: Y=Bottom+(Top−Bottom)/(1+10^((Log IC50−X)*HillSlope))
EC50 values of compounds are repeated several times in the replicon assay.

[1] = Table 2, genotype 1b replicon, Huh 7 cells, 72 h, luciferase
[2] = Table 1, genotype 1b replicon, Huh 7 cells, 72 h, luciferase

CC[C@@H](C)[C@H](NC(=O)OC)C(=O)N1CCC[C@H]1c1ncc(-c2ccc3cc(-c4cc5[nH]c([C@@H]6CCCN6C(=O)[C@@H](NC(=O)OC)[C@H](C)CC)nc5cn4)ccc3c2)[nH]1 [compound 413]
EC50 [1]: < 1 nM

COC(=O)N[C@H](C(=O)N1CCC[C@H]1c1ncc(-c2ccc(-c3ccc4cc(-c5c[nH]c([C@@H]6CCCN6C(=O)[C@H](NC(=O)OC(C)(C)C)c6ccccc6)n5)cnc4c3)nc2)[nH]1)C(C)C [compound 82]
EC50 [2]: < 1 nM

COC(=O)N[C@H](C(=O)N1CCC[C@H]1c1nc(-c2ccc3c(c2)CCN(c2c(F)cc(-c4cnc([C@@H]5CCCN5C(=O)[C@@H](NC(=O)OC)C(C)C)[nH]4)cc2F)C3)c[nH]1)C(C)C [compound 269]
EC50 [2]: < 1 nM

COC[C@H](NC(=O)OC)C(=O)N1CCC[C@H]1c1ncc(-c2ccc3cc(-c4ccc5nc([C@@H]6CCCN6C(=O)[C@@H](NC(=O)OC)C(C)C)[nH]c5c4)ccc3c2)[nH]1 [compound 513]
EC50 (Huh-7, HCV 1b replicon): < 1 nM

COC(=O)N[C@H](C(=O)N1CCC[C@H]1c1nc(C2CNc3cc(-c4ccc(-c5cnc([C@@H]6CCCN6C(=O)[C@H](NC(=O)OC6CCOCC6)c6ccccc6)[nH]5)cc4)ccc3C2)c[nH]1)C(C)C (some centres unmarked) [compound 291]
EC50 [2]: < 1 nM

COC(=O)N[C@H](C(=O)N1CCC[C@H]1c1ncc(-c2ccc3cc(-c4ccc(-c5cnc([C@@H]6COCCN6C(=O)[C@H](NC(=O)OC)c6ccccc6)[nH]5)cc4)ccc3c2)[nH]1)[C@@H](C)O [compound 324]
EC50 [1]: < 1 nM

CC[C@@H](C)[C@H](NC(=O)OC)C(=O)N1CCC[C@H]1c1ncc(-c2ccc3cc(-c4ccc5nc([C@@H]6CCCN6C(=O)[C@@H](NC(=O)OC)[C@H](C)CC)[nH]c5n4)ccc3c2)[nH]1 [compound 522]
EC50 (Huh-7, HCV 1b replicon): < 1 nM

COC(=O)N[C@H](C(=O)N1CCC[C@H]1c1ncc(-c2ccc3cc(-c4ccc(-c5cnc([C@@H]6CCCN6C(=O)[C@H](NC(=O)OC)c6ccccc6)[nH]5)cc4)ccc3c2)[nH]1)[C@@H](C)OC [compound 115]
EC50 [2]: < 1 nM

COC(=O)N[C@H](C(=O)N1CCC[C@H]1c1ncc(-c2ccc3cc(-c4ccc5nc([C@@H]6CCCN6C(=O)[C@@H](NC(=O)OC)C6CCOCC6)[nH]c5n4)ccc3c2)[nH]1)C(C)C [compound 202]
EC50 [2]: < 1 nM

COC(=O)N[C@@H](C)C(=O)N1CCC[C@H]1c1nc(-c2ccc3nc(C45CCC(c6cnc([C@@H]7CCCN7C(=O)[C@H](C)NC(=O)OC)[nH]6)(CC4)CC5)ccc3c2)c[nH]1 [compound 266]
EC50 [2]: < 1 nM

COC(=O)N[C@H](C(=O)N1CCC[C@H]1c1nc(-c2ccc3cc(-c4ccc(-c5cnc([C@@H]6CCCN6C(=O)[C@H](NC(=O)NC6CC6)c6ccccc6)[nH]5)cc4)ccc3c2)c[nH]1)C(C)C [compound 24]
EC50 [2]: < 1 nM

COC(=O)N[C@H](C(=O)N1CCC[C@H]1c1nc(-c2ccc3cc(-c4ccc(-c5cnc([C@@H]6CCCN6C(=O)[C@H](NC(=O)OC)c6ccc(F)cc6)[nH]5)cc4)ccc3c2)c[nH]1)C1CCOCC1 [compound 111]
EC50 [2]: < 1 nM

COC(=O)N[C@H](C(=O)N1CCC[C@H]1c1ncc(-c2ccc3cc(-c4cc5[nH]c([C@@H]6CCCN6C(=O)[C@@H](NC(=O)OC)C6CCCCC6)nc5cn4)ccc3c2)[nH]1)C1CCCCC1 [compound 417]
EC50 [1]: < 1 nM

COC(=O)N[C@H](C(=O)N1CCC[C@H]1c1ncc(-c2ccc3nc(-c4ccc(-c5cnc([C@@H]6CCCN6C(=O)[C@H](NC(=O)OC)c6ccccc6)[nH]5)c(F)c4)ccc3c2)[nH]1)C1CCOCC1 [compound 473]
EC50 (Huh-7, HCV 1b replicon): < 1 nM

COC(=O)N[C@H](C(=O)N1CCC[C@H]1c1ncc(-c2ccc(-c3ccc4cc(-c5c[nH]c([C@@H]6CCCN6C(=O)[C@@H](NC(=O)OC)C6CCOCC6)n5)cnc4c3)nc2)[nH]1)C(C)C [compound 61]
EC50 [2]: < 1 nM

COC(=O)N[C@H](C(=O)N1CCC[C@H]1c1nc2c([nH]1)-c1ccc(-c3ccc4cc(-c5cnc([C@@H]6CCCN6C(=O)[C@H](NC(=O)OC)c6ccccc6)[nH]5)ccc4n3)cc1CC2)C(C)C [294-1]
EC50 [2]: < 1 nM

COC(=O)N[C@H](C(=O)N1CCC[C@H]1c1ncc(-c2ccc(-c3ccc4cc(-c5cnc([C@@H]6CCCN6C(=O)[C@@H](NC(=O)OC)[C@@H](C)OC)[nH]5)ccc4n3)cc2)[nH]1)[C@@H](C)OC [compound 482]
EC50 (Huh-7, HCV 1b replicon): < 1 nM

COC(=O)N[C@H](C(=O)N1CCC[C@H]1c1nc(-c2ccc3cc(-c4ccc(-c5cnc([C@@H]6CCCN6C(=O)[C@@H](NC(=O)OC)C(C)C)[nH]5)nc4)ccc3c2)c[nH]1)C(C)C [compound 83]
EC50 [2]: < 1 nM

COC(=O)N[C@H](C(=O)N1CCC[C@H]1c1nc2ccc(-c3ccc4cc(-c5cnc([C@@H]6CCCN6C(=O)[C@@H](NC(=O)OC)C6CCOCC6)[nH]5)ccc4c3)nc2[nH]1)C(C)C [compound 201]
EC50 [2]: < 1 nM

COC(=O)N[C@H](C(=O)N1CCC[C@H]1c1ncc(-c2ccc(-c3ccc4cc(-c5c[nH]c([C@@H]6CCCN6C(=O)[C@H](NC(=O)OC(C)(C)C)c6ccccc6)n5)ccc4n3)cc2)[nH]1)C(C)C [compound 35]
EC50 [2]: < 1 nM

CCC(CC)[C@H](NC(=O)OC)C(=O)N1CCC[C@H]1c1ncc(-c2ccc3cc(-c4ccc5nc([C@@H]6CCCN6C(=O)[C@@H](NC(=O)OC)C(CC)CC)[nH]c5n4)ccc3c2)[nH]1 [compound 520]
EC50 (Huh-7, HCV 1b replicon): < 1 nM

CC[C@H](C)C(NC(=O)OC)C(=O)N1CCC[C@H]1c1nc2ccc(-c3ccc4cc(-c5cnc([C@@H]6CCCN6C(=O)[C@@H](NC(=O)OC)[C@@H](C)CC)[nH]5)ccc4c3)cc2[nH]1 (some centres unmarked) [compound 346]
EC50 [1]: < 1 nM

C#CC[C@H](NC(=O)OC)C(=O)N1CCC[C@H]1c1ncc(-c2ccc3nc(-c4ccc(-c5cnc([C@@H]6CCCN6C(=O)[C@@H](NC(=O)OC)C6CCOCC6)[nH]5)cc4F)ccc3c2)[nH]1 [compound 162]
EC50 [2]: < 1 nM

COC(=O)N[C@H](C(=O)N1CCC[C@H]1c1ncc(-c2ccc(-c3nc4ccc(-c5cnc([C@@H]6CCCN6C(=O)[C@H](NC(=O)OC)c6ccccc6)[nH]5)cc4o3)cc2)[nH]1)C(C)C [compound 249]
EC50 [2]: < 1 nM

COC(=O)N[C@H](C(=O)N1CCC[C@H]1c1ncc(-c2ccc(-c3nc4ccc(-c5cnc([C@@H]6CCCN6C(=O)[C@@H](NC(=O)OC)C(C)C)[nH]5)cc4o3)cc2)[nH]1)C(C)C [compound 234]
EC50 [2]: < 1 nM

COC(=O)N[C@H](C(=O)N1CCOC[C@H]1c1ncc(-c2ccc3cc(-c4ccc5nc([C@@H]6COCCN6C(=O)[C@@H](NC(=O)OC)C(C)C)[nH]c5c4)ccc3c2)[nH]1)C(C)C [compound 224]
EC50 [2]: < 1 nM

CCC(CC)[C@H](NC(=O)OC)C(=O)N1CCC[C@H]1c1ncc(-c2ccc3cc(-c4ccc5nc([C@@H]6CCCN6C(=O)[C@@H](NC(=O)OC)C(CC)CC)[nH]c5c4)ccc3c2)[nH]1 [compound 227]
EC50 [2]: < 1 nM

COC(=O)N[C@H](C(=O)N1CCC[C@H]1c1ncc(-c2ccc(-c3ccc4cc(-c5c[nH]c([C@@H]6CCCN6C(=O)[C@H](NC(=O)OC(C)(C)C)c6ccccc6)n5)ccc4n3)cn2)[nH]1)C(C)C [compound 70]
EC50 [2]: < 1 nM

COC(=O)N[C@@H](C(=O)N1CCC[C@H]1CNC(=O)c1ccc2cc(-c3ccc(-c4cnc([C@@H]5CCCN5C(=O)[C@H](NC(=O)OC)c5ccccc5)[nH]4)cc3)ccc2c1)c1ccccc1 [compound 577]
EC50 (Huh-7, HCV 1b replicon): < 1 nM

COC(=O)N[C@H](C(=O)N1CCC[C@H]1c1ncc(-c2ccc(-c3ccc4cc(-c5c[nH]c([C@@H]6CCCN6C(=O)[C@H](NC(=O)NC6CC6)c6ccccc6)n5)ccc4c3)cc2)[nH]1)C(C)C [compound 29]
EC50 [2]: < 1 nM

COC(=O)N[C@H](C(=O)N1CCC[C@H]1c1ncc(-c2ccc3nc(-c4ccc(-c5cnc([C@@H]6C[C@@H](O)CN6C(=O)[C@@H](NC(=O)OC)C(C)C)[nH]5)cc4)ccc3c2)[nH]1)C(C)C [compound 146]
EC50 [2]: < 1 nM

COC(=O)N[C@H](C(=O)N1CCC[C@H]1CNC(=O)c1ccc(-c2ccc3cc(-c4cnc([C@@H]5CCCN5C(=O)[C@@H](NC(=O)OC)C5CCOCC5)[nH]4)ccc3c2)cc1)C1CCOCC1 [compound 573]
EC50 (Huh-7, HCV 1b replicon): < 1 nM

COC(=O)N[C@H](C(=O)N1CCC[C@H]1c1ncc(-c2ccc3cc(-c4ccc(-c5cnc([C@@H]6CCCN6C(=O)[C@H](NC(=O)OC6CCOCC6)c6ccccc6)[nH]5)cc4)ncc3c2)[nH]1)C1CCOCC1 [compound 117]
EC50 [2]: < 1 nM

COC(=O)N[C@H](C(=O)N1CCC[C@H]1c1ncc(-c2ccc(-c3nc4ccc(-c5cnc([C@@H]6CCCN6C(=O)[C@H](NC(=O)OC(C)(C)C)c6ccccc6)[nH]5)cc4o3)cc2)[nH]1)C(C)C [compound 247]
EC50 [2]: < 1 nM

COC(=O)N[C@@H](C(=O)N1CCC[C@H]1c1nc(-c2ccc3nc(-c4ccc(-c5cnc([C@@H]6CCCN6C(=O)[C@H](NC(=O)OC)c6ccccc6)[nH]5)nc4)ccc3c2)c[nH]1)c1ccccc1 [compound 54]
EC50 [2]: < 1 nM

COC(=O)N[C@H](C(=O)N1CCC[C@H]1c1nc2ccc(-c3ccc4cc(-c5cnc([C@@H]6CCCN6C(=O)[C@@H](NC(=O)OC)[C@@H](C)OC)[nH]5)ccc4c3)cc2[nH]1)C(C)C [compound 510]
EC50 (Huh-7, HCV 1b replicon): < 1 nM

COC(=O)N[C@H](C(=O)N1CCC[C@H]1c1ncc(-c2ccc(-c3ccc4cc(-c5c[nH]c([C@@H]6CCCN6C(=O)[C@H](NC(=O)OC6CCOCC6)c6ccccc6)n5)ccc4n3)cc2)[nH]1)C1CCOCC1 [compound 92]
EC50 [2]: < 1 nM

COC(=O)N[C@@H](C(=O)N1CCC[C@H]1c1nc(-c2ccc3[nH]c(-c4ccc(-c5cnc([C@@H]6CCCN6C(=O)[C@H](NC(=O)OC)c6ccccc6)[nH]5)cc4)cc(=O)c3c2)c[nH]1)c1ccccc1 [compound 77]
EC50 [2]: 10 to 999 nM
